The test system of assay [1] is MMP-low and MMP-high HSCs. The experiment in a line: Immunofluorescence staining and laser scanning confocal microscopy of treated HSCs. The format is cell-based, mouse. As to conditions: ConA 40 nM, 18 hours. As for the experimental part:
Immunofluorescence Staining, Imaging, and Analysis—Laser Scanning Confocal Microscopy: FACS purified MMP-low and MMP-high HSCs (in average pooled from three mice) were seeded into retronectin-coated channel slides (Ibidi Cat# 80626) and fixed for 15 minutes with 10% formalin (1,000 cells). After washing with PBS, cells were permeabilized in PBS+0.25% Triton™ X-100 for 15 minutes and blocked for 1 hour in 3% BSA. Fixed and permeabilized cells were then incubated with primary antibodies (1:150) in PBS+1% BSA overnight at 4° C., washed and stained with fluorescence-conjugated secondary antibodies (1:1,000) for 1 hour at room temperature. Slides were sealed with mounting medium with DAPI. Images were captured using a Zeiss LSM880 Airyscan confocal microscope using a 100× objective (N.A. 1.46).
For analysis by immunofluorescence staining, MMP-low and MMP-high HSCs were FACS-purified and incubated in StemSpan medium containing SCF (100 ng/ml) and TPO (20 ng/ml) for the indicated time with the indicated compounds at 37° C. in a humidified atmosphere with 5% CO2. After treatment, cells were processed for confocal imaging as described above.
Fluorescence Intensity: Channel displaying the protein of interest were isolated and quantified on a per cell basis using the raw integrated density metric generated by the measure command. For nuclear intensity, DAPI thresholds were used to delimit the nucleus and mapped back onto the channel displaying the protein of interest to determine fluorescence intensity within the nucleus only.

In assay [2] the test system is MMP-low and MMP-high HSCs. Description: Long term culture-initiating cell (LTC-IC) assay. Type of assay: cell-based, mouse. As for the experimental part: Long Term Culture-Initiating Cell (“LTC-IC”) Assay: Long-term cultures were initiated as described in Lemieux et al., “Characterization and Purification of a Primitive Hematopoietic Cell Type in Adult Mouse Marrow Capable of Lymphomyeloid Differentiation in Long-Term Marrow ‘Switch’ Cultures,” Blood 86: 1339-1347 (1995), which is hereby incorporated by reference in its entirety. […] The frequency of long-term culture-initiated cells (“LTC-ICs”) was determined by limiting dilution and applying Poisson distribution statistics as described in Hu & Smyth, “ELDA: Extreme Limiting Dilution Analysis for Comparing Depleted and Enriched Populations in Stem Cell and Other Assays,” J. Immunol. Methods 347: 70-78 (2009), which is hereby incorporated by reference in its entirety.

The test system of assay [3] is aged MMP-low and -high LT-HSCs transplanted into lethally irradiated mice. The experiment in a line: Long-term in vivo competitive repopulation assay of aged HSCs after ex vivo ConA. Further details: species or system mouse. As for the experimental part:
FIGS. 21A-21C show repression of lysosomal activity ex vivo greatly improves in vivo competitive repopulation of old HSCs. FIG. 21A is a schematic of long-term in vivo competitive repopulation assay. FACS-sorted (5000) aged MMP-low and -high (CD45.2) long-term (LT) HSCs were cultured in vitro in DMSO control or Con A (40 nM) for 4 days after which 100 cells from each group were injected into lethally irradiated recipient (CD45.1) mice along with 2×10^5 CD45.1 total bone marrow competitor cells (n=7). FIG. 21B is a graph showing contribution of donor-derived (CD45.2) cells to the peripheral blood (PB) of primary recipient mice (CD45.1) in a long-term competitive repopulation assay. FIG. 21C is a graph showing lineage output as a percentage of total CD45.2 donor-derived cells in primary recipients. Data expressed as Mean±SEM (**P<0.01, ***P<0.001). Note only ConA-treated old HSCs and not control-treated HSCs generate over 1% chimerism in transplanted animals after 21 weeks.

Assay [4] concerns MMP-low and MMP-high LSK cells. Description: Metabolic assays (Seahorse OCR and ECAR). The format is cell-based, mouse. The settings on record: ConA 40 nM, 18 hours. How it is done:
Metabolic Assays. Oxygen consumption rates (“OCR”) and extracellular acidification rates (“ECAR”) were measured using a 96-well Seahorse Bioanalyzer XF 96 according to manufacturer's instructions using Seahorse Mito Stress Test or Glycolysis Stress Test kit (Agilent Technologies). In brief, MMP-low and MMP-high LSK cells isolated from a pool of at least 11 mice (40,000 cells per well) were sorted and treated with or without ConA (40 nM) for 18 hours in StemSpan media with SCF (10 ng/mL) and TPO (20 ng/mL). Cells were washed and suspended in XF basic medium with 11 mM glucose, 1 mM sodium pyruvate and 2 mM glutamine (pH 7.4 at 37° C.). The injection port A on the sensor cartridge was loaded with […] oligomycin (Oligo), 2 mM FCCP was loaded into port B and 0.5 mM rotenone/antimycin (ROT/AA) A was loaded into port C. During sensor calibration, the cells were incubated in the 37° C. non-CO2 incubator. The plate was immediately placed onto the calibrated XF96 extracellular flux analyzer for the Mito Stress Test. For the glycolysis stress test, cells were suspended in XF basic medium in 1 mM glutamine (pH 7.4 at 37° C.). The injection port A on the sensor cartridge was loaded with 10 mM glucose. Then, 2 mM oligomycin was loaded into port B and 50 mM 2-DG into port C. During sensor calibration, cells were incubated in the 37° C. non-CO2 incubator. The plate was immediately placed in the calibrated XF96 extracellular flux analyzer for the glycolysis stress test.

The mark [5] stands for this setting: aging MMP-low and MMP-high HSCs.
Where [6] appears, read: aged HSCs, Con A 40 nM, two days.

As for `C/C=C/[C@H]1O[C@@](O)([C@@H](C)[C@H](O)[C@H](C)[C@H]2OC(=O)/C(OC)=C/C(C)=C/[C@@H](C)[C@@H](O)[C@@H](CC)[C@@H](O)[C@H](C)C/C(C)=C/C=C/[C@@H]2OC)C[C@@H](O[C@H]2C[C@@H](O)[C@H](OC(N)=O)[C@@H](C)O2)[C@@H]1C` [ConA, concanamycin A], in assay [1], the “lysosomal phenotype (LAMP2)” value was “bloated lysosomal phenotype” and the “mTOR co-localization with lysosomes in MMP-high HSCs” value is recorded as “lost”. In assay [1] (MMP-high HSCs), the “expression of Ki67 and CDK6” value was “restored in ConA-treated MMP-high HSCs to the levels of the untreated MMP-low HSCs”. In addition, in assay [1] (almost to levels of rapamycin (40 nM)-treated HSCs), the “mTOR signaling (mTOR, RHEB, RAGA/B, p4EBP1) in MMP-high HSCs” value was “repression of mTOR signaling”. In addition, the “mTOR activity in old HSCs” value in assay [1] (aging HSCs) is “reduced/abolished mTOR activity”. In addition, in assay [1] (setting [5]), the “cycling status (CDK6 staining) of aging HSCs” value is given as “reverted the cycling status” and the “lysosomal content in old HSCs” value is given as “increasing lysosomal content”. Besides, in assay [2] (ConA 40 nM, 48-hour or 4-day), the “enhanced frequency of LTC-ICs, MMP-high HSCs” value is on record as 2.5 fold and the “enhanced frequency of LTC-ICs, MMP-low HSCs” value is given as 1.5 fold. The “size of LTC-IC-derived colonies” value in assay [2] (ConA 40 nM, two days) is “increased size of colonies”. Further, in assay [2] (setting [6]), the “LTC-IC-derived colonies from aged HSCs” value was “increased the LTC-IC-derived colonies” and the “number of LTC-IC recovered from aged HSC cultures” value is recorded as “improved the number”. Further, the “lineage output of aged MMP-high HSCs” value in assay [3] (4-day cultured, Con A 40 nM) is on record as “balanced their lineage output”. Further, in assay [3] (4-day cultured, Con A 40 nM, 100 cells), the “competitive repopulation ability of aged MMP-high HSCs” value is reported as “remarkably improved”. Moreover, the “self-renewal of old HSCs and their balance blood production” value in assay [3] (ex vivo ConA treatment (FIG. 19 and FIG. 20)) is reported as “improves significantly”. The “self-renewal of aged HSCs in secondary transplants” value in assay [3] (mice receiving control-treated HSCs died) is on record as “improved self-renewal in secondary transplants”. Moreover, in assay [3] (old HSCs, 4-day ex vivo ConA, not control-treated), the “survival of recipients in secondary transplantation” value is “survive in secondary transplantation”. Further, the “chimerism in transplanted animals” value in assay [3] (old HSCs, after 21 weeks, control-treated HSCs do not) is “over 1%”. Moreover, in assay [4], the “glycolysis (ECAR) in MMP-high and MMP-low HSPCs” value is “collapsed glycolysis”; the “oxygen consumption in MMP-low HSPCs” value is reported as “only a relatively small effect”; the “oxygen consumption in primed (MMP-high) HSPCs” value was “drastically decreased oxygen consumption”.

These data come from patent US20220243177A1, “METHODS OF CULTURING QUIESCENT HEMATOPOIETIC STEM CELLS AND TREATMENT METHODS” (priority 2019, published 2022).
